Values quoted from earlier work as cited in article PMC9959726 (Molecules, 2023).
pIC50: −log10 of the molar value. Where two headings read alike, the source gives them in different places.

What was measured:
[1] = system: BEAS-2B and HepG2 cells; conditions: PM2.5-induced BEAS-2B and HepG2 cells
[2] = system: CYP-1A2; set-up: method as in PMID 34377680; conditions: for Effect on CYP 1A2: from P. anisum root
[3] = system: MCF-7 cells; set-up: method as in PMID 29959054; conditions: from P. haussknechtii fruit; read-out: Cytotoxicity against MCF-7 cell, IC50
[4] = from P. thellungiana
[5] = for antioxidant activity: compounds obtained from P. saxifraga; for antioxidant property: from P. brachycarpa
[6] = system: DNA; conditions: compounds obtained from P. saxifraga
[7] = system: α-glycosidase; conditions: for α-glucosidase inhibitory: from P. candolleana; for α-glucosidase inhibition: from P. anthriscoides
[8] = system: α-amylase; conditions: from P. anthriscoides
[9] = system: AChE; conditions: from P. anthriscoides
[10] = system: BChE; conditions: from P. anthriscoides
[11] = system: pestiferous pests; set-up: method as in PMID 29029251, PMID 29029346
[12] = set-up: method as in PMID 30704124

## CC=Cc1ccc(OC)cc1 (stereo in doubt) [compound 40, cis-anethole]
[1]
  reduction of IL-8 level: 87%

## COc1c2ccoc2cc2oc(=O)ccc12 [Bergapten (256)]
[2]
  Effect on CYP 1A2: Inhibitory effects on CYP 1A2

## CC(C)=CC(C)(O)C1OC(=O)Cc2oc(C)cc(=O)c21 (stereo not drawn) [Pimpinelol (205)]
[3]
  pIC50: 5.97

## CCOC(c1cc(OC)ccc1O)C(C)O (stereo not drawn) [compound 1, 2-(1′-ethoxy-2′-hydroxy)propyl-4-methoxyphenol]
[4]
  antihypertensive activity: significant antihypertensive activity

## CCOC(c1cc(OC)ccc1OC(=O)C(C)CC)C(C)O (stereo not drawn) [compound 2, 2-(1′-ethoxy-2′-hydroxy)propyl-4-methoxyphenyl-2-methyl-butyrate]
[4]
  antihypertensive activity: significant antihypertensive activity

## COC(=O)/C=C/c1ccccc1O [compound 48, methyl-O-coumarate]
[5]
  antioxidant activity: antioxidant activity
[6]
  DNA protection potential: DNA protection potential

## CCC(=O)c1ccc(OC)cc1O [compound 49, 1-(2-hydroxy-4-methoxyphenyl)propan1-one]
[5]
  antioxidant activity: antioxidant activity
[6]
  DNA protection potential: DNA protection potential

## COc1ccc(C=CC=O)cc1 [compound 50, 4-methoxycinnamaldehyde]
[5]
  antioxidant activity: antioxidant activity
[6]
  DNA protection potential: DNA protection potential

## C=CCc1cc2c(c(OC)c1OC)OCO2 [compound 51, dillapiole]
[5]
  antioxidant activity: antioxidant activity
[6]
  DNA protection potential: DNA protection potential

## COc1c2ccoc2cc2oc(=O)ccc12 [compound 256, bergapten]
[2]
  CYP-1A2 inhibition: inhibitors

## COc1c2ccoc2c(OC)c2oc(=O)ccc12 [compound 274, isopimpinellin]
[2]
  CYP-1A2 inhibition: inhibitors

## CCC(C=CC(C)C1CCC2C3CC=C4CC(OC(C)=O)CCC4(C)C3CCC12C)C(C)C (stereo not drawn) [compound 294, Stigmasta-5, 22-dien-3-olacetate]
[5]; from P. candolleana
  antioxidant: effective antioxidant
[7]
  α-glucosidase inhibitory: α-glucosidase inhibitory

## CC[C@H](CC[C@@H](C)[C@H]1CC[C@H]2[C@@H]3CC=C4C[C@@H](O[C@@H]5O[C@H](CO)[C@@H](O)[C@H](O)[C@H]5O)CC[C@]4(C)[C@H]3CC[C@]12C)C(C)C [compound 295, daucosterol]
[5]; from P. candolleana
  antioxidant: effective antioxidant
[7]
  α-glucosidase inhibitory: α-glucosidase inhibitory

## CC[C@H](/C=C/[C@@H](C)[C@H]1CC[C@H]2[C@@H]3CC=C4C[C@@H](O)CC[C@]4(C)[C@H]3CC[C@]12C)C(C)C [compound 296, stigmasterol]
[5]; from P. candolleana
  antioxidant: effective antioxidant
[7]
  α-glucosidase inhibitory: α-glucosidase inhibitory

## CC(=O)C(C)CCC(C)C1CCC2(C)C3CCC4C(C)(C)CCCC4(C)C3CCC12C (stereo not drawn) [compound 297, 24ζ-Methyl-5R-lanosta-25-one]
[5]
  antioxidant property: antioxidant property

## CC(=O)[C@H]1CC[C@H]2[C@@H]3CC=C4C[C@@H](O)CC[C@]4(C)[C@H]3CC[C@]12C [compound 298, pregnenolone]
[5]
  antioxidant property: antioxidant property

## O=C(O)C(O)Cc1ccccc1 (stereo not drawn) [compound 337, 3-phenyllactic acid]
[5]; from P. anthriscoides
  antioxidant: proven antioxidant
[8]
  α-amylase inhibition: inhibiting
[7]
  α-glucosidase inhibition: inhibiting
[9]
  AChE inhibition: inhibiting
[10]
  BChE inhibition: inhibiting

## O=C(O)CC(O)(CC(=O)O)C(=O)O [compound 338, citric acid]
[5]; from P. anthriscoides
  antioxidant: proven antioxidant
[8]
  α-amylase inhibition: inhibiting
[7]
  α-glucosidase inhibition: inhibiting
[9]
  AChE inhibition: inhibiting
[10]
  BChE inhibition: inhibiting

## COc1c2ccoc2c(OC)c2oc(=O)ccc12 [isopimpinellin (274)]
[2]
  Effect on CYP 1A2: Inhibitory effects on CYP 1A2

## COc1c2occc2cc2ccc(=O)oc12 [methoxsalen (275)]
[2]
  Effect on CYP 1A2: Inhibitory effects on CYP 1A2

## p-anisaldehyde [compound 47]
[5]
  antioxidant activity: antioxidant activity
[6]
  DNA protection potential: DNA protection potential
[11]
  reproduction of pests: inhibiting the reproduction of pests

## umbelliprenin [compound 276]
[12]
  skin whitening: potential skin-whitening agent
